According to patent publication US7094911B2, “Biphenyl and biphenyl-analogous compounds as integrin antagonists” (Bayer Aktiengesellschaft, priority 1998, dated 2006):
pIC50: −log10 of the molar value.

Test system: smooth muscle cells
Assay: Smooth muscle cell (SMC) migration test
Type: cell-based, humans or rats
Conditions: horizontal migration on vitronectin-coated plates, 24 hours; human or rat cells not specified
Procedure: b) Smooth Muscle Cell (SMC) Migration Test
Smooth muscle cells from humans or rats were used. The migration of the cells was determined in a horizontal measuring arrangement (Falcon).
The horizontal migration was determined in 6-well plates coated with vitronectin (1 μg/cm^2). The cells were suspended in a medium (DMEM:F12/0, 12% BSA-rat smooth muscle cells or MCDB 131 with 0.2% BSA-human smooth muscle cells), inoculated and allowed to grow to confluence. Half of the smooth muscle cell lawn was then scraped off, and the cells were treated with different concentrations of the test compounds. The mixtures were incubated for 24 hours at 37° C. in the presence of 5% CO2 After the incubation, the smooth muscle cell migration was determined by measurement of the migration distance and the cell density of the migrated cells.
In the case of `CC1(C)[C@@H]2CC[C@@]1(CS(=O)(=O)N[C@@H](Cc1ccc(-c3cccc(NC(=O)Nc4cccnc4)c3)cc1)C(=O)O)C(=O)C2` [Example 1.73, (2S)-3-[3′-(3-Pyridin-3-yl-ureido)-biphenyl-4-yl]-2-[(S)-campher-10-yl-sulfonylamino]-propanoic acid], the pIC50 was 7.40 to 8.52.

Molecular target: αvβ3 receptor
Assay: not given
Conditions: WO 98/00395, second value; cited from earlier work
In the case of `CC1(C)C2CCC1(CS(=O)(=O)NC(Cc1ccc(OCCCC(=O)NC(=N)N)cc1)C(=O)O)C(=O)C2` (stereo not drawn) [(I)], the pIC50 is listed as 9.80.

Test system: not given
Assay: not given
Conditions: not given
For `O=C(O)[C@H](Cc1ccc(-c2cccc(CNc3ccccn3)c2)cc1)NS(=O)(=O)c1c(Cl)cccc1Cl` [Example 18.13], the melting point was greater than 240 °C.
In the case of `O=C(O)[C@H](Cc1ccc(-c2cccc(CNc3ccccn3)c2)cc1)NS(=O)(=O)c1ccc(Cl)s1` [Example 18.14], the melting point was greater than 240 °C.
For `Cc1cc(C)c(S(=O)(=O)N[C@@H](Cc2ccc(-c3cccc(NC(=O)c4ccc[nH]4)c3)cc2)C(=O)O)c(C)c1` [Example 19.2], the melting point was 140 °C (dec.).
In the case of `COc1ccc(-c2cccc(NC(=O)c3ccc[nH]3)c2)cc1S(=O)(=O)NC(CC(=O)O)c1ccccc1` (stereo not drawn) [Example 19.3], the melting point was 234 °C.
In the case of `Cc1cc(C)c(S(=O)(=O)N[C@@H](Cc2ccc(-c3cccc(NC(=O)c4cccnc4)c3)cc2)C(=O)O)c(C)c1` [Example 19.4], the melting point was greater than 240 °C.
In the case of `COc1ccc(-c2cccc(NC(=O)c3ncc[nH]3)c2)cc1S(=O)(=O)NC(CC(=O)O)c1ccccc1` (stereo not drawn) [Example 19.5], the melting point was greater than 200 °C.
With `CC1(C)C2CC[C@@]1(CS(=O)(=O)N[C@@H](Cc1ccc(-c3cccc(Nc4ncccc4[N+](=O)[O-])c3)cc1)C(=O)O)C(=O)C2` [Example 20.3] the melting point was 207 °C.
`COc1ccc(-c2cccc(Nc3ncccc3N)c2)cc1S(=O)(=O)NC(CC(=O)O)c1ccccc1` (stereo not drawn) [Example 20.4] showed a melting point greater than 240 °C.
Work on `COc1ccc(-c2cccc(Nc3ccccn3)c2)cc1S(=O)(=O)NC(CC(=O)O)c1ccccc1` (stereo not drawn) [Example 20.5] yielded a melting point greater than 240 °C.

Molecular target: T1, ανβ3 receptor (Homo sapiens, UniProt P05106+P06756)
T1 construct: ανβ3 from human A375 cells were purified according to a procedure described by Wong et al; endogenous in cells; host or cells: human A375 cells (receptor purified from the cells, detergent-solubilised)
T1 sequence (P06756 31-889 limits assumed): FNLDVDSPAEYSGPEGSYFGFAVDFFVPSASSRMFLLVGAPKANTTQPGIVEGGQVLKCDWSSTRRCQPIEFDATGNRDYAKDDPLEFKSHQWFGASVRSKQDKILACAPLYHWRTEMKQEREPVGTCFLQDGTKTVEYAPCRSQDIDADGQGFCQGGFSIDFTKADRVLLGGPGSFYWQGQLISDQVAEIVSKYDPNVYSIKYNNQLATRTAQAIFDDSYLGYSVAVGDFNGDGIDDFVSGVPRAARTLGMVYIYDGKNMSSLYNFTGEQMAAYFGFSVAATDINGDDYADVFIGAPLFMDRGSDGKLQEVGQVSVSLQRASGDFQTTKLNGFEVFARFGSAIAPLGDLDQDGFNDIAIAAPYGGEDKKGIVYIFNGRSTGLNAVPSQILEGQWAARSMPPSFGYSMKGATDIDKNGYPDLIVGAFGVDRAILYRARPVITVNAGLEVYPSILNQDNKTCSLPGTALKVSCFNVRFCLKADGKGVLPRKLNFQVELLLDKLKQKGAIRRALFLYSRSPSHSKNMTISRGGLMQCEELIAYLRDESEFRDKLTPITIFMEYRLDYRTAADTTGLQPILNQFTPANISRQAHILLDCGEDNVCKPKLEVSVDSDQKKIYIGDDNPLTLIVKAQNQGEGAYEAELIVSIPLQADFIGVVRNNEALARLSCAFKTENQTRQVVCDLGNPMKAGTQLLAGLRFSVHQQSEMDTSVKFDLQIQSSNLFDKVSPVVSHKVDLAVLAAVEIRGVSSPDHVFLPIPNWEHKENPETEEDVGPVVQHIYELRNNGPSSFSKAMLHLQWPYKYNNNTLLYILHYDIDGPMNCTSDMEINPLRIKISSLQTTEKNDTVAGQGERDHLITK
T1 sequence (P06756 891-1048 partner limits assumed): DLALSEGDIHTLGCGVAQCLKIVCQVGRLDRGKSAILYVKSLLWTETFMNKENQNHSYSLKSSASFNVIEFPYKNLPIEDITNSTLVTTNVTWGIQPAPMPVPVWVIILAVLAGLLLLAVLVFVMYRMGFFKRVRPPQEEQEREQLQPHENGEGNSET
T1 sequence (P05106 27-788): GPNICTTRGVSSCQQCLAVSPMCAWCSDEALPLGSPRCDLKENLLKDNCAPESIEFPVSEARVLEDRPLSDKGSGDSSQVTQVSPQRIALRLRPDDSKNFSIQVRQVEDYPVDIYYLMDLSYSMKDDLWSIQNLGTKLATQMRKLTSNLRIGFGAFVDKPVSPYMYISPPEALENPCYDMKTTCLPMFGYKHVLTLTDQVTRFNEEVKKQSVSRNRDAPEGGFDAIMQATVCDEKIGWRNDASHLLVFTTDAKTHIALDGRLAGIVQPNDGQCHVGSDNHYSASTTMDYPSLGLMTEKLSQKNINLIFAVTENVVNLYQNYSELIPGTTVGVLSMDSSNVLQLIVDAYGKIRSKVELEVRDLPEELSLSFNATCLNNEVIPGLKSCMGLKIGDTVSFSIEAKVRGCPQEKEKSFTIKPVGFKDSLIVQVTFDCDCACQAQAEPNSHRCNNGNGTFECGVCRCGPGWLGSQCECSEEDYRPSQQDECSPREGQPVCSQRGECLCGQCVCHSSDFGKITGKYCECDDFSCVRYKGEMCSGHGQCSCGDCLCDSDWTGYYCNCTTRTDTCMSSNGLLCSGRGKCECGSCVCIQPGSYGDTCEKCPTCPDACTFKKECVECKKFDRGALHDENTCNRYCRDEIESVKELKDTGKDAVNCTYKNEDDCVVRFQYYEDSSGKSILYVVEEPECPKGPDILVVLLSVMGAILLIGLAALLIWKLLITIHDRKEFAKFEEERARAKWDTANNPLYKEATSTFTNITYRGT
Assay: Binding to the αvβ3 receptor (echistatin SPA)
Conditions: ανβ3 purified from human A375 cells, labelled echistatin, WGA SPA beads; read-out: avb3 IC50
Procedure: Biological Investigations a) Binding to the ανβ3 Receptor
10 μl ανβ3 (5 ng) in TBS pH 7.6, 2 mM CaCl2, 1 mM MgCl2, 1% n/octylglucopyranoside; 10 μl of the substance to be tested in TBS pH 7.6, 0.1% dimethylsulfoxide (DMSO), and 45 μl TBS pH 7.6, 2 mM CaCl2, 1 MM MgCl2, 1 mM MnCl2 were each incubated for 1 h at room temperature.
`CC1(C)[C@@H]2CC[C@@]1(CS(=O)(=O)N[C@@H](Cc1ccc(-c3cccc(NC(=O)Nc4cccnc4)c3)cc1)C(=O)O)C(=O)C2` [Example 1.73, (2S)-3-[3′-(3-Pyridin-3-yl-ureido)-biphenyl-4-yl]-2-[(S)-campher-10-yl-sulfonylamino]-propanoic acid] gave a pIC50 of 8.70.
